Experimental data reported in publication PMC8998618, “A Pharmacokinetic and Metabolism Study of the TRPC6 Inhibitor SH045 in Mice by LC-MS/MS” (International Journal of Molecular Sciences, 2022).

Assay: NADPH-dependent microsomal conversion, Michaelis-Menten kinetics (MLM)
Format: in vitro ADME, mouse
Settings: MLM 0.5 mg/mL protein, SH045 0.5 to 100 µM, Lineweaver-Burk
Protocol: For determination of vmax and Michaelis-Menten constant Km of the NADPH-dependent microsomal depletion of SH045, incubations in MLM and HLM were performed. Testosterone instead of SH045 was used as positive control (Supplementary Materials SM6).
Negative controls were obtained by omission of respective components. The overall velocity (v) of degradation was calculated from altered SH045 concentration (∆c) obtained from reduction peak area ratio of SH045 as: v = ∆c/incubation time × concentration of enzyme (nmol/min × mg). Mean maximum rate vmax and Km were calculated using Lineweaver-Burk transformation. […]
The tissue binding of SH045 was analyzed exemplarily in lung, liver and kidney homogenate using ultrafiltration [5]. […] 20 µL of the mixture and the filtrate were analyzed for SH045. […]
Testosterone (10 µM in ACN/DPBS 2/3, v/v) instead of SH045 was used as positive control and analyzed by an appropriate HPLC method with UV detection.
Negative controls contained either no NADPH, no MLM or HLM or none of them. The overall velocity (v) of degradation was calculated from altered SH045 concentration (∆c) obtained from reduction peak area ratio of SH045 as: v = ∆c / incubation time × concentration of enzyme × volume (nmol/ min × mg). Mean maximum rate vmax and Michaelis-Menten constant Km were calculated using Lineweaver-Burk transformation. […]

vmax: 9.8 ± 0.8 nmol/min/mg
Km at 10 min (mouse, mouse liver microsomes): 48.4 ± 3.9 µM
SMILES: C=C[C@@](C)(O)CC[C@H]1C(=C)C[C@H](OC(=O)NC)[C@H]2C(C)(C)CCC[C@]12C [SH045, (1S,4S,4aR,8aS)-4-((S)-3-Hydroxy-3-methylpent-4-en-1-yl)-4a,8,8-trimethyl-3-methylenedecahydronaphthalen-1-yl methylcarbamate]
